Test results: US9080214B2, “Genetic markers for efficacy of iloperidone in the treatment of psychotic symptoms” (Vanda Pharmaceuticals, Inc., priority 2007, dated 2015)

Tested on: individuals diagnosed with schizophrenia
Test: Change in PANSS-GP subscale by SNP genotype, patients on iloperidone 24 mg/day b.i.d. for 28 days (MMRM)
Format: in vivo, human
Description: Earlier studies investigated an association between a polymorphism in the CNTF gene and iloperidone efficacy as well as associations between CYP2D6 and KCNQ1 genotypes and changes in QT interval following the administration of iloperidone. The present study involved the genotyping of DNA samples collected from 426 individuals diagnosed with schizophrenia in an attempt to identify additional SNPs associated with iloperidone efficacy. Each sample was genotyped at more than 500,000 SNP loci using the GeneChip® Human Mapping 500K Array Set (Affymetrix, Santa Clara, Calif.) and using assays developed in-house. Approximately half of the participants in the study were administered 24 mg/day of iloperidone, b.i.d., for 28 days. About 25% of the patients were administered ziprasidone. The remaining participants were administered a placebo. Three analyses of the PANSS-T were conducted. 1) A two-step approach where samples were randomly split into 2 groups of iloperidone-treated patients used to discover SNPs associated with changed in PANSS-T (Discovery phase) and a second group to confirm the 100 most significant SNPs (Confirmatory phase). 2) A one-step approach using the Last Observation Carried Forward (LOCF) PANSS-T data of all iloperidone-treated patients. For each SNP, the most parsimonious genetic model (e.g., homozygous for one allele v. all other genotypes [i.e., AA v. AB and BB], heterozygous v. homozygous [i.e., AB v. AA and BB]) was established with respect to iloperidone efficacy using a one-way analysis of variance (ANOVA). 3) A Mixed-effects Model Repeated Measures (MMRM) analysis was subsequently conducted using the best genetic model of each SNP in the MMRM model. MMRM analyses were also conducted with the PANSS subscales PANSS-P, PANSS-N, and PANSS-GP. The SNPs with a statistically significant association in all 3 analyses of PANSS-T, as well as the best of each analysis were considered significant findings and are listed below in Table 1. Results for each of these SNPs with the PANSS-T scales and with the three subscales PANSS-P, PANSS-N, and PANSS-GP are shown in Tables 2, 3, 4, and 5, respectively. […] In the present case of iloperidone efficacy, it is likely that different markers are more specifically associated with one or a few specific clinical symptoms, which is reflected in the improvement measured in separate subscales.

COc1cc(C(C)=O)ccc1OCCCN1CCC(c2noc3cc(F)ccc23)CC1 [iloperidone, 1-[4-[3-[4-(6-fluoro-1,2-benzisoxazol-3-yl)-1-piperidinyl]propoxy]-3-methoxyphenyl]ethanone]
mean of change in PANSS-GP (SNP_A-1819750 (CREG1) genotype A_A): −8.04 | mean of change in PANSS-GP (SNP_A-1819750 (CREG1) genotype A_B* (lowest response)): −4.58 | mean of change in PANSS-GP (SNP_A-1819750 (CREG1) genotype B_B): −6.81 | mean of change in PANSS-GP (SNP_A-1819750 (CREG1) genotype nonAB** (highest response)): −7.21 | mean of change in PANSS-GP (SNP_A-1860353 (RAP1B) genotype A_A** (highest response)): −17.20 | mean of change in PANSS-GP (SNP_A-1860353 (RAP1B) genotype A_B): −5.17 | mean of change in PANSS-GP (SNP_A-1860353 (RAP1B) genotype B_B): −4.96 | mean of change in PANSS-GP (SNP_A-1860353 (RAP1B) genotype nonAA* (lowest response)): −5.00 | mean of change in PANSS-GP (SNP_A-1934663 genotype A_A): −9.38 | mean of change in PANSS-GP (SNP_A-1934663 genotype A_B): −8.80 | mean of change in PANSS-GP (SNP_A-1934663 genotype B_B* (lowest response)): −3.07 | mean of change in PANSS-GP (SNP_A-1934663 genotype nonBB** (highest response)): −8.92 | mean of change in PANSS-GP (SNP_A-1973093 (KIAA0040) genotype A_A): −6.40 | mean of change in PANSS-GP (SNP_A-1973093 (KIAA0040) genotype A_B* (lowest response)): −1.92 | mean of change in PANSS-GP (SNP_A-1973093 (KIAA0040) genotype B_B): −7.77 | mean of change in PANSS-GP (SNP_A-1973093 (KIAA0040) genotype nonAB** (highest response)): −7.51 | mean of change in PANSS-GP (SNP_A-1975928 (SLC2A9) genotype A_A): −5.82 | mean of change in PANSS-GP (SNP_A-1975928 (SLC2A9) genotype A_B): −5.39 | mean of change in PANSS-GP (SNP_A-1975928 (SLC2A9) genotype B_B* (lowest response)): 9.62 | mean of change in PANSS-GP (SNP_A-1975928 (SLC2A9) genotype nonBB** (highest response)): −5.72 | mean of change in PANSS-GP (SNP_A-1987915 (GPR126) genotype A_A): −4.63 | mean of change in PANSS-GP (SNP_A-1987915 (GPR126) genotype A_B): −4.28 | mean of change in PANSS-GP (SNP_A-1987915 (GPR126) genotype B_B** (highest response)): −7.14 | mean of change in PANSS-GP (SNP_A-1987915 (GPR126) genotype nonBB* (lowest response)): −4.36 | mean of change in PANSS-GP (SNP_A-2007721 (LOC58486) genotype A_A): −2.52 | mean of change in PANSS-GP (SNP_A-2007721 (LOC58486) genotype A_B** (highest response)): −10.51 | mean of change in PANSS-GP (SNP_A-2007721 (LOC58486) genotype B_B): −3.91 | mean of change in PANSS-GP (SNP_A-2007721 (LOC58486) genotype nonAB* (lowest response)): −3.90 | mean of change in PANSS-GP (SNP_A-2044214 (HNT) genotype A_A): −6.83 | mean of change in PANSS-GP (SNP_A-2044214 (HNT) genotype A_B* (lowest response)): −3.34 | mean of change in PANSS-GP (SNP_A-2044214 (HNT) genotype B_B): −5.68 | mean of change in PANSS-GP (SNP_A-2044214 (HNT) genotype nonAB** (highest response)): −6.43 | mean of change in PANSS-GP (SNP_A-2048427 (NPAS3) genotype A_A): −9.50 | mean of change in PANSS-GP (SNP_A-2048427 (NPAS3) genotype A_B): −9.79 | mean of change in PANSS-GP (SNP_A-2048427 (NPAS3) genotype B_B* (lowest response)): −3.44 | mean of change in PANSS-GP (SNP_A-2048427 (NPAS3) genotype nonBB** (highest response)): −9.75 | mean of change in PANSS-GP (SNP_A-2070454 (NKX2-5) genotype A_A): −3.91 | mean of change in PANSS-GP (SNP_A-2070454 (NKX2-5) genotype A_B): −4.34 | mean of change in PANSS-GP (SNP_A-2070454 (NKX2-5) genotype B_B** (highest response)): −8.12 | mean of change in PANSS-GP (SNP_A-2070454 (NKX2-5) genotype nonBB* (lowest response)): −4.20 | mean of change in PANSS-GP (SNP_A-2076797 (NUDT9P1) genotype A_A): −2.80 | mean of change in PANSS-GP (SNP_A-2076797 (NUDT9P1) genotype A_B** (highest response)): −8.23 | mean of change in PANSS-GP (SNP_A-2076797 (NUDT9P1) genotype B_B): −2.42 | mean of change in PANSS-GP (SNP_A-2076797 (NUDT9P1) genotype nonAB* (lowest response)): −2.62 | mean of change in PANSS-GP (SNP_A-2103099 (HTR1A) genotype A_A): −7.79 | mean of change in PANSS-GP (SNP_A-2103099 (HTR1A) genotype A_B* (lowest response)): −3.42 | mean of change in PANSS-GP (SNP_A-2103099 (HTR1A) genotype B_B): −6.80 | mean of change in PANSS-GP (SNP_A-2103099 (HTR1A) genotype nonAB** (highest response)): −7.16 | mean of change in PANSS-GP (SNP_A-2120958 genotype A_A): −5.90 | mean of change in PANSS-GP (SNP_A-2120958 genotype A_B): −6.13 | mean of change in PANSS-GP (SNP_A-2120958 genotype B_B* (lowest response)): 1.80 | mean of change in PANSS-GP (SNP_A-2120958 genotype nonBB** (highest response)): −5.99 | mean of change in PANSS-GP (SNP_A-2170121 (C6) genotype A_A): −3.40 | mean of change in PANSS-GP (SNP_A-2170121 (C6) genotype A_B** (highest response)): −10.21 | mean of change in PANSS-GP (SNP_A-2170121 (C6) genotype B_B): −5.25 | mean of change in PANSS-GP (SNP_A-2170121 (C6) genotype nonAB* (lowest response)): −3.57 | mean of change in PANSS-GP (SNP_A-2274533 (LZTS1) genotype A_A** (highest response)): −7.04 | mean of change in PANSS-GP (SNP_A-2274533 (LZTS1) genotype A_B): −2.16 | mean of change in PANSS-GP (SNP_A-2274533 (LZTS1) genotype B_B): −2.33 | mean of change in PANSS-GP (SNP_A-2274533 (LZTS1) genotype nonAA* (lowest response)): −2.20 | mean of change in PANSS-GP (SNP_A-2283283 (XKR4) genotype A_A* (lowest response)): −0.58 | mean of change in PANSS-GP (SNP_A-2283283 (XKR4) genotype A_B): −6.49 | mean of change in PANSS-GP (SNP_A-2283283 (XKR4) genotype B_B): −6.90 | mean of change in PANSS-GP (SNP_A-2283283 (XKR4) genotype nonAA** (highest response)): −6.66 | mean of change in PANSS-GP (SNP_A-2284243 (GRIA4) genotype A_A): −6.57 | mean of change in PANSS-GP (SNP_A-2284243 (GRIA4) genotype A_B): −6.77 | mean of change in PANSS-GP (SNP_A-2284243 (GRIA4) genotype B_B* (lowest response)): −0.77 | mean of change in PANSS-GP (SNP_A-2284243 (GRIA4) genotype nonBB** (highest response)): −6.69 | mean of change in PANSS-GP (SNP_A-4204396 (CDH13) genotype A_A): −5.87 | mean of change in PANSS-GP (SNP_A-4204396 (CDH13) genotype A_B): −5.99 | mean of change in PANSS-GP (SNP_A-4204396 (CDH13) genotype B_B* (lowest response)): 1.39 | mean of change in PANSS-GP (SNP_A-4204396 (CDH13) genotype nonBB** (highest response)): −5.91 | mean of change in PANSS-GP (SNP_A-4212785 (PPP1R3B) genotype A_A* (lowest response)): 15.61 | mean of change in PANSS-GP (SNP_A-4212785 (PPP1R3B) genotype A_B): −5.99 | mean of change in PANSS-GP (SNP_A-4212785 (PPP1R3B) genotype B_B): −5.84 | mean of change in PANSS-GP (SNP_A-4212785 (PPP1R3B) genotype nonAA** (highest response)): −5.89 | mean of change in PANSS-GP (SNP_A-4230979 (ASB3) genotype A_A): −1.74 | mean of change in PANSS-GP (SNP_A-4230979 (ASB3) genotype A_B): −3.42 | mean of change in PANSS-GP (SNP_A-4230979 (ASB3) genotype B_B** (highest response)): −8.85 | mean of change in PANSS-GP (SNP_A-4230979 (ASB3) genotype nonBB* (lowest response)): −3.07 | mean of change in PANSS-GP (SNP_A-4256833 (MLCK) genotype A_A): −7.14 | mean of change in PANSS-GP (SNP_A-4256833 (MLCK) genotype A_B* (lowest response)): −2.62 | mean of change in PANSS-GP (SNP_A-4256833 (MLCK) genotype B_B): −6.45 | mean of change in PANSS-GP (SNP_A-4256833 (MLCK) genotype nonAB** (highest response)): −6.49 | mean of change in PANSS-GP (SNP_A-4258279 (RRM1) genotype A_A): −4.64 | mean of change in PANSS-GP (SNP_A-4258279 (RRM1) genotype A_B* (lowest response)): −0.66 | mean of change in PANSS-GP (SNP_A-4258279 (RRM1) genotype B_B): −6.29 | mean of change in PANSS-GP (SNP_A-4258279 (RRM1) genotype nonAB** (highest response)): −6.27
